Test results: ChEMBL document CHEMBL3301361, “Experimental in vitro DMPK and physicochemical data on a set of publicly disclosed compounds”
Converted amounts (≈) assume the structure as drawn.

Tests used:
physchem [1] = settings: pH 7.4 buffer
physchem [2] = settings: octan-1-ol/water, pH 7.4, LogD7.4

| Compound | solubility thermodynamic (physchem [1]) [µM] | logD (physchem [2]) |
| --- | --- | --- |
| Cn1cnc(-c2ccccc2)c1-c1nc2c(N)ncnc2s1 | 162 (≈ 50 µg/mL) | 2.69 |
| O=C(O)C[C@@H]1c2ccccc2C[C@H]1NC(=O)c1cc2sc(Cl)c(Cl)c2[nH]1 | 1510 (≈ 620 µg/mL) | 2.53 |
| CCCCn1c(Cc2cc(OC)c(OC)c(OC)c2)nc2c(N)ncnc21 | 85.1 (≈ 31.6 µg/mL) | 2.39 |
| Nc1ccc2cccc(Nc3ncccn3)c2n1 | 26.9 (≈ 6.38 µg/mL) | 2.7 |
| CCCc1c(O)c(O)c(C(=O)O)c2cc(Cc3ccccc3)c(C)cc12 | 204 (≈ 71.6 µg/mL) | 2.6 |
| CS(=O)(=O)c1cccc(Nc2nccc(Nc3cccc4ncoc34)n2)c1 | 5.6 (≈ 2.14 µg/mL) | 2.5 |
| COc1cc(C(=O)NS(=O)(=O)c2ccccc2C)ccc1Cc1cn(C)c2ccc(C(=O)NCCc3ccccc3)cc12 | 144 (≈ 86.1 µg/mL) | 2.51 |
| CCn1c(=O)ccc2cnc(Nc3ccc(OC)c(OC)c3)nc21 | 1.6 (≈ 0.522 µg/mL) | 2.7 |
| CCOC(=O)c1ccccc1-c1csc(NS(=O)(=O)c2ccc(Cl)cc2)n1 | 1.4 (≈ 0.592 µg/mL) | 2.43 |
| COc1ccc(S(=O)(=O)Nc2ccc(/C=C/C(=O)Nc3ccccc3N)cc2)cc1OC | 7.8 (≈ 3.54 µg/mL) | 2.56 |
| CNc1ncc(C(=O)c2ccccc2)s1 | 724 (≈ 158 µg/mL) | 2.36 |
| Oc1ncnc2scc(-c3ccsc3)c12 | 178 (≈ 41.7 µg/mL) | 2.25 |
| COc1cccc2c(O)cc(-c3ccccc3)nc12 | 224 (≈ 56.3 µg/mL) | 2.3 |
| Nc1nc(-c2ccccn2)nc(N)c1Cc1ccccc1F | 170 (≈ 50.1 µg/mL) | 2.12 |
| O=S(=O)(Nc1nc(-c2sccc2Cl)cs1)c1cc(Cl)ccc1Cl | 151 (≈ 64.5 µg/mL) | 2.11 |
| NCC(O)(c1ccc(Cl)cc1)c1ccc(Cl)cc1 | 759 (≈ 214 µg/mL) | 2.69 |
| CC1(COc2cc(-c3cccc4c(=O)cc(N5CCOCC5)oc34)ccc2NC(=O)CN2CCOCC2)COC1 | 36.3 (≈ 20 µg/mL) | 2.2 |
| O=C(Nc1ccccc1-c1ccccc1)OC1CCN(CCCCCCCCCNC[C@H](O)c2ccc(O)c3[nH]c(=O)ccc23)CC1 | 525 (≈ 336 µg/mL) | 2.16 |
| CCn1c(SCC(=O)Nc2c(C#N)cnn2-c2ccccc2)nnc1-c1cccs1 | 14.1 (≈ 6.14 µg/mL) | 2.1 |
| Nc1nc(-c2ccccc2)cs1 | 832 (≈ 147 µg/mL) | 2.43 |
| Cc1c(-c2ccc3c(c2)OCO3)c(=O)n(C[C@H](N)c2ccccc2)c(=O)n1Cc1c(F)cccc1F | 372 (≈ 183 µg/mL) | 2.67 |
| Nc1nc(N)c(C(=O)Nc2ccccn2)nc1Cl | 4.5 (≈ 1.19 µg/mL) | 2.67 |
| CC1C(=O)Nc2ccccc2N1C(=O)c1ccccc1 (stereo not given) | 40.7 (≈ 10.8 µg/mL) | 2.11 |
| COc1cc2ncnc(Oc3cnn(CC(=O)Nc4ccc(N(C)C)cn4)c3)c2cc1OC | 6.6 (≈ 2.97 µg/mL) | 2.36 |
| O=c1cc(-c2ccc(O)cc2)[nH]c2ccccc12 | 4.7 (≈ 1.12 µg/mL) | 2.34 |

| Compound | solubility thermodynamic (physchem [1]) [µM] | logD (physchem [2]) |
| --- | --- | --- |
| NC(=O)c1sc(-c2ccccc2)cc1N | 38.9 (≈ 8.49 µg/mL) | 2.33 |
| Nc1ncnc2c1nc(Sc1nc3cccc(Cl)c3s1)n2CCO | 2 (≈ 0.758 µg/mL) | 2.37 |
| CCCN(CCO)CCCOc1ccc2c(Nc3cc(CC(=O)Nc4cccc(F)c4F)[nH]n3)ncnc2c1 | 5.8 (≈ 3.13 µg/mL) | 2.19 |
| O=C(Nc1ccccc1O)c1cc([N+](=O)[O-])ccc1Cl | 53.7 (≈ 15.7 µg/mL) | 2.49 |
| O=C(c1ccc(F)cc1)C(O)c1ccc(F)cc1 (stereo not given) | 933 (≈ 232 µg/mL) | 2.49 |
| Nc1n[nH]c2nnc(-c3ccccc3)c(-c3ccccc3)c12 | 15.8 (≈ 4.54 µg/mL) | 2.6 |
| c1ccc(-c2n[nH]cc2-c2ccnc3ccccc23)nc1 | 26.3 (≈ 7.16 µg/mL) | 2.57 |
| O=C(O)c1ccccc1Cn1nnc(-c2cccc(OCc3ccc4ccccc4n3)c2)n1 | 7.8 (≈ 3.41 µg/mL) | 2.1 |
| CN(C)CC(O)COc1ccc(Nc2nccc(Nc3cccc(Cl)c3)n2)cc1 (stereo not given) | 120 (≈ 49.8 µg/mL) | 2.5 |
| Cc1sc(N2CCN(C)CC2)nc1CCOc1ccc(C[C@H](Nc2ccccc2C(=O)c2ccccc2)C(=O)O)cc1 | 97.7 (≈ 57.1 µg/mL) | 2.58 |
| COC(=O)COc1ccc(C(=O)Nc2ccc(F)cc2)cn1 | 55 (≈ 16.7 µg/mL) | 2.43 |
| CNC(=O)Nc1cc(-c2ccccc2)sc1C(N)=O | 1.1 (≈ 0.303 µg/mL) | 2.71 |
| NS(=O)(=O)c1cccc(Nc2nccc(Nc3cccc4[nH]ncc34)n2)c1 | 51.3 (≈ 19.6 µg/mL) | 2.6 |
| CN(C)CC(O)COc1ccc(Nc2nccc(N(CC#N)c3cc(Cl)ccc3Cl)n2)cc1 (stereo not given) | 575 (≈ 280 µg/mL) | 2.4 |
| CN(CCOc1ccc(C[C@H](Nc2ccccc2C(=O)c2ccccc2)C(=O)O)cc1)c1ccccn1 | 219 (≈ 108 µg/mL) | 2.15 |
| COCCOCCOc1ccc(-c2cc(C(N)=O)c(NC(N)=O)s2)cc1 | 20.9 (≈ 7.93 µg/mL) | 2.21 |
| Cn1c(=O)n(Cc2ccc(C(=O)O)cc2)c(=O)c2cc(C#CCc3ccccc3)ccc21 | 3 (≈ 1.27 µg/mL) | 2.5 |
| COc1ccc(CNCc2ccc(-c3cc(C(N)=O)c(NC(N)=O)s3)cc2)cc1 | 11.5 (≈ 4.72 µg/mL) | 2.55 |
| Cc1cccc(NS(=O)(=O)c2ccc(-c3ccc(C#N)cc3)cc2)n1 | 17.4 (≈ 6.08 µg/mL) | 2.42 |
| CCOc1ccc2nc(N)sc2c1 | 851 (≈ 165 µg/mL) | 2.4 |
| COc1cc(Nc2cc(Oc3cccnc3)ccn2)cc(OC)c1OC | 93.3 (≈ 33 µg/mL) | 2.66 |
| Cc1cc(Oc2ccnc(Nc3ccc(S(N)(=O)=O)cc3)c2)c(-c2ccccn2)nc1C | 2.5 (≈ 1.12 µg/mL) | 2.34 |
| Cc1ccc(Oc2ccnc(Nc3ccc(S(N)(=O)=O)cc3)c2)c(C)n1 | 4.2 (≈ 1.56 µg/mL) | 2.47 |
| COc1cc(C(=O)NS(=O)(=O)c2ccccc2)ccc1Cn1ccc2ccc(NC(=O)OC3CCCC3)cc21 | 5.1 (≈ 2.79 µg/mL) | 2.2 |

Other lines, results leading:

| solubility thermodynamic (physchem [1]) [µM] | logD (physchem [2]) | Compound |
| --- | --- | --- |
| 25.1 (≈ 9.7 µg/mL) | 2.3 | N#Cc1cnn(-c2ccccc2)c1NC(=O)CN1CCN(c2ccccc2)CC1 |
| 115 (≈ 34.3 µg/mL) | 2.66 | Clc1cccc(Cl)c1-c1nnc2cccc(Cl)n12 |
| 380 (≈ 119 µg/mL) | 2.42 | COc1ccc(C(=O)C2CCN(C(=O)c3ccco3)CC2)cc1 |
| 4.8 (≈ 2.08 µg/mL) | 2.39 | NC(=O)c1sc(-c2ccsc2)cc1NS(=O)(=O)c1ccc(C(F)(F)F)cc1 |
| 18.2 (≈ 6.08 µg/mL) | 2.34 | FC(F)(F)c1nnc2ccc(NCn3nnc4ccccc43)nn12 |
| 5.4 (≈ 3.07 µg/mL) | 2.6 | CN1CCN(CC(=O)Nc2ccc(-c3cccn4c(=O)cc(N5CCOCC5)nc34)c3sc4ccccc4c23)CC1 |
| 13.2 (≈ 6.33 µg/mL) | 2.3 | COc1cc(-c2cccc3c(=O)cc(N4CCOCC4)oc23)ccc1NC(=O)CN1CCOCC1 |
| 51.3 (≈ 24.5 µg/mL) | 2.23 | COc1ccnc(N(C)c2ccnc(Nc3cc(N4CCOCC4)cc(N4CCOCC4)c3)n2)c1 |
| 468 (≈ 173 µg/mL) | 2.68 | CCOC(=O)c1ccc(COCC2CCN(c3ccc(C)nn3)CC2)cc1 |
| 15.8 (≈ 5.87 µg/mL) | 2.7 | CCOC(=O)c1ccc(OCCC2CN(c3ccc(C)nn3)CCO2)cc1 (stereo not given) |
| 417 (≈ 107 µg/mL) | 2.41 | FC(F)(F)c1nnc2ccc(N3CCCC3)nn12 |
| 1510 (≈ 632 µg/mL) | 2.17 | Cc1ccc(NC(=O)C2CC2)cc1-n1cnc2ccc(N3CCN(C)CC3)cc2c1=O |
| 1290 (≈ 571 µg/mL) | 2.43 | Cc1ccc(NC(=O)c2ccoc2)cc1-n1cnc2ccc(N3CCN(C)CC3)cc2c1=O |
| 91.2 (≈ 36.2 µg/mL) | 2.36 | CN1CCN(c2ccc(NC(=O)c3nnc(Nc4ccccc4F)o3)cn2)CC1 |
| 6.2 (≈ 2.63 µg/mL) | 2.51 | CC(=O)N1CCN(c2ccc(NC(=O)c3nnc(Nc4ccccc4F)o3)cc2)CC1 |
| 282 (≈ 137 µg/mL) | 2.16 | COc1cc2ncnc(Nc3cccc(Cl)c3F)c2cc1CN(C)C1(C(N)=O)CCN(C)CC1 |

| solubility thermodynamic (physchem [1]) [µM] | logD (physchem [2]) | Compound |
| --- | --- | --- |
| 63.1 (≈ 19.6 µg/mL) | 2.5 | Cc1cc(Nc2ccnc(NCc3cc(C4CC4)no3)n2)n[nH]1 |
| 174 (≈ 72.9 µg/mL) | 2.18 | CCCSc1nc(N2CCC[C@H](CC(=O)O)C2)ccc1C(=O)NC1CCCCC1 |
| 1380 (≈ 727 µg/mL) | 2.59 | CN1CCC(COc2cc(OC3CCOCC3)c3c(Nc4c(Cl)ccc5c4OCO5)ncnc3c2)CC1 |
| 10 (≈ 4.9 µg/mL) | 2.7 | COc1cc2c(NC(=O)Nc3c(Cl)cccc3Cl)ncnc2cc1OCC1CCN(C)CC1 |
| 2.7 (≈ 1.27 µg/mL) | 2.66 | CN1CCN(S(=O)(=O)c2ccc(-c3cnc(N)c(C(=O)Nc4cccnc4)n3)cc2F)CC1 |
| 8.9 (≈ 3.2 µg/mL) | 2.6 | CS(=O)(=O)C1(c2cc(N3CCOCC3)nc(-c3ccccc3)n2)CC1 |
| 759 (≈ 197 µg/mL) | 2.49 | Cc1nc2ccc(Cl)cn2c1-c1ccnc(N)n1 |
| 468 (≈ 219 µg/mL) | 2.58 | CS(=O)(=O)c1ccc([C@@H](CC2CCCC2)C(=O)Nc2cnc([C@H](O)CO)cn2)cc1Cl |
| 490 (≈ 255 µg/mL) | 2.2 | Cc1ccc(NC(=O)c2ccnc(N3CCOCC3)c2)cc1Nc1ccnc(OCC(C)(C)CN(C)C)n1 |
| 234 (≈ 104 µg/mL) | 2.64 | COc1cc2ncnc(Nc3cccc(Cl)c3F)c2cc1CN1CCC[C@H]1CC(N)=O |
| 3.6 (≈ 1.86 µg/mL) | 2.7 | COc1cc2c(Nc3cnc(NC(=O)c4ccccc4)nc3)ncnc2cc1OCCCN1CCOCC1 |
| 57.5 (≈ 25.2 µg/mL) | 2.49 | Cc1ncc(-c2nc(Nc3ccc(C(=O)N4CCN(C)CC4)cc3)ncc2F)n1C(C)C |
| 851 (≈ 412 µg/mL) | 2.43 | Cc1ncc(-c2ccnc(Nc3ccc(S(=O)(=O)CCCN4CCOCC4)cc3)n2)n1C(C)C |
| 148 (≈ 62 µg/mL) | 2.39 | CC(=O)N1CCN(c2ccc(Nc3nccc(-c4cnc(C)n4C(C)C)n3)cc2)CC1 |
| 275 (≈ 129 µg/mL) | 2.41 | Cc1ncc(-c2nc(Nc3ccc(C(=O)NC4CCN(C)CC4)c(F)c3)ncc2F)n1C(C)C |
